Laboratory results as given in patent US20230346772A1, “COMBINATION TREATMENTS FOR WALDENSTROM'S MACROGLOBULINEMIA” (X4 Pharmaceuticals, Inc., priority 2019, published 2023).
Like-named read-outs stand apart in the source and are kept apart here.

Columns and labels:
[1] = test system: WBC count; conditions: similar across neutrophils, monocytes, lymphocytes including B cells; cited from earlier work
[2] = test system: CD19 B cells; conditions: patients with WHIM who had mutations in CXCR4; cited from earlier work
[3] = test system: Waldenstrom's Macroglobulinemia; conditions: cited from earlier work
[4] = test system: Waldenstrom's Macroglobulinemia; conditions: previously treated WM patients, cited from earlier work
[5] = test system: Waldenstrom's Macroglobulinemia; conditions: treatment-naive WM patients, cited from earlier work
[6] = Food effect on absorption
[7] = Terminal half-life of X4P-001; conditions: in vivo
[8] = Solubility of X4P-001; format: physicochemical
[9] = test system: neutrophil; assay: Pharmacodynamic response of neutrophil changes (ANC); design: species or system human; conditions: in vivo
Source text: This characteristic of mavorixafor, allows for intrapatient patient dose escalation and since the steady-state ANC response is achieved rapidly as doses are escalated, the 28-day treatment duration cycle is intended to ensure that steady-state changes in ANC counts are achieved at each dose level, thereby avoiding any potential carry-over effects of previous doses. In addition, any DLT events are attributed to the current dose regardless of duration, making it unlikely that an unsafe dose is selected based on the algorithm.

[10] = Phase 1/2 study in renal cell carcinoma, dose-limiting toxicities; format: in vivo, human
Description: Doses of mavorixafor up to 600 mg daily have been tested in other clinical trials. During a Phase 1/2 study in renal cell carcinoma, a 3-patient cohort received monotherapy with 600 mg mavorixafor with 2 DLTs reported. On review, one of these (hyperglycemia) occurred in a patient with undiagnosed diabetes mellitus and the other (acute kidney injury [AKI]) occurred in a patient with pre-existing renal dysfunction and other complicating factors. Six patients received the 600 mg mavorixafor dose together with axitinib. […] Patients with a high hemoglobin A1c (HbA1c) level or with renal dysfunction are excluded from this study for safety reasons.

[11] = target: CXCR4 (Homo sapiens, UniProt P61073)
CXCR4, sequence (P61073 whole entry): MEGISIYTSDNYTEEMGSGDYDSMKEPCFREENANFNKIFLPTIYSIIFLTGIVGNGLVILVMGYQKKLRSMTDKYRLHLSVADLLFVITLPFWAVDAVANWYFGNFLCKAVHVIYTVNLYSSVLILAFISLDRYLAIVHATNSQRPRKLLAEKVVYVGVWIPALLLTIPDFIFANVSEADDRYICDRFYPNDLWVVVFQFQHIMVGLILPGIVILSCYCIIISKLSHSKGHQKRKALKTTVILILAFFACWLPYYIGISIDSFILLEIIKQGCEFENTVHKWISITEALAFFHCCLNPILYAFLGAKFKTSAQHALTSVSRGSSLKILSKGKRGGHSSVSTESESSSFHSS
Description: Dose selection for the planned Phase 1b study is based on available safety data and PD of CXCR4 inhibition. […] An intrapatient dose escalation scheme is used in this study: patients will have a dose escalation in 200-mg increments to a maximum dose of 600 mg QD with the objective of achieving maximum white blood cell (WBC) mobilization.

Structure (SMILES): c1cc(CN2CCCNCCNCCCNCC2)ccc1CN1CCCNCCNCCCNCC1 [plerixafor]
- maximum fold-increase in WBCs over baseline [1]: 3 fold
- fold increase in CD19 B cells [2]: greater than 40 fold

Structure (SMILES): C=CC(=O)N1CCC[C@@H](n2nc(-c3ccc(Oc4ccccc4)cc3)c3c(N)ncnc32)C1 [ibrutinib, 1-[(3R)-3-[4-amino-3-(4-phenoxyphenyl)-1Hpyrazolo[3,4-d]pyrimidin-1-yl]-1-piperidinyl]-2-propen-1-one]
- VGPR ([3]; patients with the MYD88^L265P CXCR4^WT mutations): 44.4%
- VGPR ([3]; patients with the double mutations MYD88^L265P CXCR4^WHIM): 9.5%
- MR (major response) ([4]; All Patients): 78%
- VGPR (very good partial response) ([4]; All Patients): 29%
- MR (major response) ([4]; MYD88^L265P CXCR4^WHIM): 67%
- VGPR (very good partial response) ([4]; MYD88^L265P CXCR4^WHIM): 10%
- MR (major response) ([4]; MYD88^L265P CXCR4^WT): 97%
- VGPR (very good partial response) ([4]; MYD88^L265P CXCR4^WT): 44%
- MR (major response) ([5]; All Patients): 83%
- VGPR (very good partial response) ([5]; All Patients): 20%
- MR (major response) ([5]; MYD88^L265P CXCR4^WHIM): 71%
- VGPR (very good partial response) ([5]; MYD88^L265P CXCR4^WHIM): 7%
- MR (major response) ([5]; MYD88^L265P CXCR4^WT): 94%
- VGPR (very good partial response) ([5]; MYD88^L265P CXCR4^WT): 31%
- absorption when taken with food [6]: increased

Structure (SMILES): NCCCCN(Cc1nc2ccccc2[nH]1)[C@H]1CCCc2cccnc21 [X4P-001]
- half-life [7]: 12 to 24 h
- solubility ([8]; aqueous buffer, pH range 3.0 to 8.0, read-out: Solubility): > 100 mg/mL
- solubility ([8]; in water): only slightly soluble
- pharmacodynamic response of neutrophil changes [9]: rapid, occurring within hours to days
- DLTs reported ([10]; 600 mg monotherapy, 3-patient cohort): 2
- patients reporting DLTs ([10]; 600 mg together with axitinib, six patients): Two of these patients reported DLTs
- pharmacological activity of the dose ([11]; 200 mg starting dose, prior clinical trials): pharmacologically active
- tolerability of the dose ([11]; human, in vivo): well-tolerated
